Literature values in patent US20210087552A1, “Methods, Compositions, and Systems for Classification of Genetic Variants of Unknown Significance” (Laboratory Corporation of America Holdings, priority 2019, published 2021).

What was measured:
[1] = system: individual mutations in ABL1, ASXL1, BRAF, CDKN2A, CEBPA, CSF3R, DNMT3A, EZH2, FLT3, IDH1, IDH2, JAK2, KIT, KMT2A, KRAS, NF1, NPM1, NRAS, PDGFRA, PML PTPN11 …
[2] = system: individual mutations in ABL1, ASXL1, BRAF, CSF3R, DNMT3A, EZH2, FLT3, IDH2, JAK2, KIT, KRAS, NF1, NRAS, PDGFRA, PML PTPN11, and TET2

Row | SMILES | mutation associated with resistance to chemotherapeutic agent [1] | mutation associated with resistance to agent [2]
1 | Nc1ccn([C@@H]2O[C@H](CO)[C@@H](O)[C@@H]2O)c(=O)n1 [cytarabine] | resistance | 
2 | CC(C)(C)c1nc(-c2cccc(NS(=O)(=O)c3c(F)cccc3F)c2F)c(-c2ccnc(N)n2)s1 [dabrafenib] | resistance | 
3 | Cc1cn(-c2cc(NC(=O)c3ccc(C)c(Nc4nccc(-c5cccnc5)n4)c3)cc(C(F)(F)F)c2)cn1 [nilotinib] |  | resistance
